Reference: US5684151A, “1-arylsulphonyl, arylcarbonyl and 1-arylphosphonyl-3-phenyl-1,4,5,6-tetrahydropyridazines” (priority 1995, dated 1997)
pIC50: −log10 of the molar value. Where two headings read alike, the source gives them in different places.

Assays:
[1] = biological target: T1, progestin receptor from rabbit uterus (Oryctolagus cuniculus, UniProt P06186); assay: Progestin receptor binding (3H-R5020 displacement); settings: rabbit uterine cytosol, 4° C., 18 h, read-out: IC50: Binding affinity for the progestin receptor from rabbit uterus
T1 construct: Cytosolic progestin receptor were obtained by mixing rabbit uterine tissue with a Tris buffer; from tissue; host or cells: rabbit uterus cytosol
Method in brief: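 Displacement of the radioligand 3H-R5020 was measured in cytosol from homogenized rabbit uterus (pH 7.4 Tris/EDTA/DTT/molybdate buffer), with compounds at 5% final DMSO and about 18 h at 4 °C. Charcoal removed free ligand, scintillation counting quantified bound ligand, and IC50 was the concentration displacing half.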

[2] = tested on: mouse (MC3T3-E1) and human (TE-85) osteoblast-line cells; assay type: cell-based
Method in brief: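 Proliferation was read as ^3H-thymidine (0.4 μCi) uptake during a 4 h pulse, which started 20 h after compound addition. Before dosing, cells sat 24 h in 0.1% FBS. Values are % times control (100%).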

T1 sequence (P06186 whole entry): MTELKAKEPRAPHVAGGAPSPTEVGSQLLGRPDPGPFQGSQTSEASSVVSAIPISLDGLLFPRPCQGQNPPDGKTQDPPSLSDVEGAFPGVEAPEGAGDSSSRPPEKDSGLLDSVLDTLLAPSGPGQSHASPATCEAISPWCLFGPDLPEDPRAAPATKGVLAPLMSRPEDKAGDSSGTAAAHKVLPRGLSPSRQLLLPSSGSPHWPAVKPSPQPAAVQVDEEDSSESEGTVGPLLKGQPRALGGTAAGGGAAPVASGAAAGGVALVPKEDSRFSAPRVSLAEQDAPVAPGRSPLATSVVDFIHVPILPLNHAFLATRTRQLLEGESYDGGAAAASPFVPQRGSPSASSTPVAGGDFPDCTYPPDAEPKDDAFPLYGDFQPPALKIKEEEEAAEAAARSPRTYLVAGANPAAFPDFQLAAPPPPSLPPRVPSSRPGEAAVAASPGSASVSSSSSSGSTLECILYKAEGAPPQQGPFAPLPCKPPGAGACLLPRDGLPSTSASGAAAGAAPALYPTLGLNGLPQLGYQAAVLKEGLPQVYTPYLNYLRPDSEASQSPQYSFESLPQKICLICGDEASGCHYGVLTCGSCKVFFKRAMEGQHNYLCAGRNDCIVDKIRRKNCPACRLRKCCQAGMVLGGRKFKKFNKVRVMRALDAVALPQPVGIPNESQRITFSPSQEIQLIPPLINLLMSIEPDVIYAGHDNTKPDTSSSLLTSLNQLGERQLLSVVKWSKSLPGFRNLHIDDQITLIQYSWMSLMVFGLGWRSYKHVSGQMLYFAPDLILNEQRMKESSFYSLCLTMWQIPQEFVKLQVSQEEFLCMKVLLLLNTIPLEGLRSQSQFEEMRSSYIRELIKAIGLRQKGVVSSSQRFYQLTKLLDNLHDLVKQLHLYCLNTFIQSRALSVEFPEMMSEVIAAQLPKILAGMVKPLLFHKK

Row | SMILES | pIC50 [1] | Osteoblast Cell Proliferation, 3H-thymidine incorporation vs control (100%) ([2]; 10^-6) [%] | Osteoblast Cell Proliferation, 3H-thymidine incorporation vs control (100%) ([2]; 10^-7) [%] | Osteoblast Cell Proliferation, 3H-thymidine incorporation vs control (100%) ([2]; 10^-8) [%] | Osteoblast Cell Proliferation, 3H-thymidine incorporation vs control (100%) ([2]; 10^-9) [%] | Osteoblast Cell Proliferation, 3H-thymidine incorporation vs control (100%) ([2]; 10^-10) [%]
1 | O=S(=O)(c1ccc2ccccc2c1)N1CCCC(c2cccc(Cl)c2)=N1 [Compound 94] | 7.84 | 110 | 85 | 90 | 110 | 130
2 | O=S(=O)(c1ccc(I)cc1)N1CCCC(c2ccc3c(c2)CCCC3)=N1 [Compound 113] | 7.56 | 66 | 94 | 102 | 102 | 90
3 | CC1CC(c2ccccc2)=NN(S(=O)(=O)c2cc(Cl)ccc2Cl)C1 (centres unmarked) [Compound 144] | 7.14 |  | 112 | 122 | 117 | 108
4 | O=S(=O)(c1c(F)c(F)c(F)c(F)c1F)N1CCCC(c2ccc(F)cc2)=N1 [Compound 152, 3-(4-Fluorophenyl)-1-(pentafluorobenzenesulfonyl)-1,4,5,6-tetrahydropyridazine] | 6.76 | 87 | 123 | 124 | 149 | 161
5 | Nc1ccc(S(=O)(=O)N2CCCC(c3ccc(Cl)cc3)=N2)cc1 [Compound 153, 1-(4-Aminobenzenesulfonyl)-3-(4-chlorophenyl)-1,4,5,6-tetrahydropyridazine] | 6.20 | 85 | 115 | 83 | 99 | 103
6 | CC(=O)Nc1ccc(S(=O)(=O)N2CCCC(c3ccc(Cl)cc3)=N2)cc1 [Compound 154] | 6.09 | 97 | 111 | 107 | 124 | 115
7 | Cc1ccc(S(=O)(=O)N2N=C(c3ccccc3)CC3CCCC32)cc1 (centres unmarked) [Compound 156, 4,4a,5,6,7,7a-Hexahydro-3-phenyl-1-(4-methylbenzenesulfonyl)-1H-cyclopenta[c]pyridazine] | 6.00 | 127 | 124 | 126 | 136 | 183
8 | Cc1ccc(S(=O)(=O)N2N=C(c3ccccc3)CC3C4C5C=CC(C5)C4CC32)cc1 (centres unmarked) [Compound 157, 1,4,4a,9a-Tetrahydro-1-(4-methylbenzenesulfonyl)-3-phenyl-bicyclo[2.2.1]hept-7-enyl[5.6-a]cyclopenta-[1.2-e]pyridazine] | 6.12 | 107 | 108 | 113 | 111 | 128
9 | Cc1ccc(S(=O)(=O)N2N=C(c3ccccc3)CC3Cc4ccccc4C32)cc1 (centres unmarked) [Compound 158, 1,4,4a,9a,-Tetrahydro-4-(4-methylbenzenesulfonyl)-2-phenyl-3,4-diazafluorene Hemihydrate] | 5.52 | 105 | 102 | 122 | 114 | 119
10 | COC12CCCCC1CC(c1ccccc1)=NN2S(=O)(=O)c1ccc(C)cc1 (centres unmarked) [Compound 159, 1,4,4a,5,6,7,8,8a-Octahydro-8a-methoxy-1-(4-methyl-benzenesulfonyl)-3-phenyl-1,2-diazanapthalene] | 5.86 | 97 | 100 | 91 | 97 | 105
11 | Cc1ccc(S(=O)(=O)N2N=C(c3cccc(Br)c3)CC3C4C5C=CC(C5)C4CC32)cc1 (centres unmarked) [Compound 161, 1,4,4a,9a-Tetrahydro-1-(4-methylbenzenesulfonyl)-3-(3bromophenyl)bicyclo[2.2.1]hept-7-enyl[5.6-a]cyclopenta[1.2-e]pyridazine] | 5.52 | 76 | 95 | 113 | 122 | 112
12 | O=S(=O)(/C=C/c1ccccc1)N1CCCC(c2ccc(Cl)c(Cl)c2)=N1 [Compound 167] | 8.23 | 126 | 109 | 136 | 144 | 165
13 | O=S(=O)(/C=C/c1cccc(Cl)c1)N1CCCC(c2ccc(Cl)c(Cl)c2)=N1 [Compound 172] | 7.49 | 134 | 108 | 103 | 106 | 113
14 | COc1ccc(C(=O)N2CCCC(c3ccc(OC)cc3)=N2)cc1 [Compound 182] | 4.00 | 95 | 108 | 118 | 139 | 115
15 | COc1ccc(C(=O)N2CCCC(c3ccccc3)=N2)cc1 [Compound 183] | 4.00 | 88 | 133 | 131 | 136 | 135
16 | COc1ccc(C2=NN(C(=O)c3ccc(Cl)cc3)CCC2)cc1 [Compound 184] | 4.00 | 84 | 102 | 113 | 146 | 131
17 | COc1ccc(C2=NN(C(=O)c3cccc(Cl)c3)CCC2)cc1 [Compound 188] | 4.00 | 105 | 129 | 130 | 135 | 137
18 | COc1ccc(C2=NN(C(=O)c3ccc(Cl)c(Cl)c3)CCC2)cc1 [Compound 189] | 4.00 | 89 | 112 | 98 | 122 | 128
19 | COc1ccc(C2=NN(C(=O)c3ccc(Br)cc3)CCC2)cc1 [Compound 190] | 4.00 | 121 | 135 | 130 | 139 | 158
20 | O=C(c1ccccc1)N1CCCC(c2ccc(Cl)cc2)=N1 [Compound 191, 1-Benzoyl-3-(4-chlorophenyl)-1,4,5,6-tetrahydropyridazine] | 4.00 | 86 | 133 | 126 | 133 | 123
21 | Cc1ccc(C(=O)N2CCCC(c3ccc(Cl)cc3)=N2)cc1 [Compound 192] | 4.00 | 115 | 131 | 128 | 132 | 148
